# In patent publication US20220380375A1, “SUBSTITUTED AROMATIC FUSED RING DERIVATIVE AND COMPOSITION COMPRISING SAME, AND USE THEREOF” (Shenzhen TargetRx, Inc., priority 2019, published 2022):
# Columns and labels:
# Format in all cases: cell-based
# [1] = biological target: T1, Ba/F3 KIF5B-RET^V804L cells (Homo sapiens, UniProt P07949, V804L, cells depend on it); test: Cytotoxicity assay (CellTiter-Glo), Ba/F3 KIF5B-RET V804L; details: CellTiter-Glo, 72 hrs; read-out: Ba/F3 KIF5B-RET^V804L IC50
# T1 construct: Ba/F3 KIF5B-RET^V804L IC50 (nM); other: CellTiter-Glo, 72 hrs; fused on or other part: P33176 (Kinesin-1 heavy chain)
# Description: (§1) Inhibitory effects of example compounds on the activity of Ba/F3 parental generation, Ba/F3 KIF5B-RET, Ba/F3 KIF5B-RET^V804M, Ba/F3 KIF5B-RET^V804L, Ba/F3 KIF5B-RET^G810R, Ba/F3 FLT3-ITD, Ba/F3 FLT3-ITD^D835Y, Ba/F3 FLT3-ITD^F691L cells were determined.
# (§2) Materials and reagents: fetal bovine serum FBS (GIBCO, Cat #10099141), CellTiter-Glo® Luminescent Cell Viability Assay kit (Promega, Cat #G7572), 96-well black-wall clear flat-bottom plate (Corning®, Cat #3603).
# (§3) 1. Cells in the logarithmic growth phase were harvested and counted with a […]. Cell viability was detected by a trypan blue exclusion method, ensuring that cell viability was 90% or more; 2. Cell concentration was adjusted to about 3000 cells/well; 90 μl of cell suspension was added to each well of the 96-well plate; 3. The cells in the 96-well plate were incubated overnight under the condition of 37° C., 5% CO2, and 95% humidity.
# (§4) 1. A series of compound solutions were formulated by 3.16-fold serial dilution starting from a concentration of 10 μM, resulting in 9 concentrations. 10 μL of the compound solutions were added in each well of the 96-well plate seeded with cells in triplicate for each compound concentration; 2. The cells in the 96-well plate added with compounds were further incubated under the condition of 37° C., 5% CO2, and 95% humidity for 72 hrs, and then CTG analysis was carried out.
# (§5) 1. CTG reagent was thawed, and the cell plate was equilibrated at room temperature for 30 minutes; 2. An equal volume […] of CTG solution was added to each well; 3. The cell plate was shaken on an orbital shaker for 5 minutes to lyse the cells; 4. The cell plate was placed at RT for 20 minutes to stabilize the luminescence signal; 5. Luminescence value was read.
# (§6) Data were Analyzed by GraphPad Prism 5.0 Software, and Fitted by Nonlinear S-Curve Regression to obtain a dose-response curve, from which IC50 values were calculated.
# (§7) Cell survival rate (%)=(luminescence value of drug to be tested−luminescence value of culture medium control)/(luminescence value of cell control−luminescence value of culture medium control)×100%.
# [2] = test system: Ba/F3 KIF5B-RET^V804L cells; test: as above; details: ratio of Ba/F3 parental IC50 to Ba/F3 KIF5B-RET^V804L IC50
# Description: as §1, §2, §3, §4, §5, §6, §7
# Ba/F3 FLT3-ITD cells = biological target: T2, Ba/F3 FLT3-ITD cells (Homo sapiens, UniProt P36888, cells depend on it, form not given); test: Cytotoxicity assay (CellTiter-Glo), Ba/F3 FLT3-ITD; details: CellTiter-Glo, 72 hrs; read-out: Ba/F3 FLT3-ITD IC50
# T2 construct: Ba/F3 FLT3-ITD IC50 (nM); other: CellTiter-Glo, 72 hrs
# T2 sequence (P36888 1-993): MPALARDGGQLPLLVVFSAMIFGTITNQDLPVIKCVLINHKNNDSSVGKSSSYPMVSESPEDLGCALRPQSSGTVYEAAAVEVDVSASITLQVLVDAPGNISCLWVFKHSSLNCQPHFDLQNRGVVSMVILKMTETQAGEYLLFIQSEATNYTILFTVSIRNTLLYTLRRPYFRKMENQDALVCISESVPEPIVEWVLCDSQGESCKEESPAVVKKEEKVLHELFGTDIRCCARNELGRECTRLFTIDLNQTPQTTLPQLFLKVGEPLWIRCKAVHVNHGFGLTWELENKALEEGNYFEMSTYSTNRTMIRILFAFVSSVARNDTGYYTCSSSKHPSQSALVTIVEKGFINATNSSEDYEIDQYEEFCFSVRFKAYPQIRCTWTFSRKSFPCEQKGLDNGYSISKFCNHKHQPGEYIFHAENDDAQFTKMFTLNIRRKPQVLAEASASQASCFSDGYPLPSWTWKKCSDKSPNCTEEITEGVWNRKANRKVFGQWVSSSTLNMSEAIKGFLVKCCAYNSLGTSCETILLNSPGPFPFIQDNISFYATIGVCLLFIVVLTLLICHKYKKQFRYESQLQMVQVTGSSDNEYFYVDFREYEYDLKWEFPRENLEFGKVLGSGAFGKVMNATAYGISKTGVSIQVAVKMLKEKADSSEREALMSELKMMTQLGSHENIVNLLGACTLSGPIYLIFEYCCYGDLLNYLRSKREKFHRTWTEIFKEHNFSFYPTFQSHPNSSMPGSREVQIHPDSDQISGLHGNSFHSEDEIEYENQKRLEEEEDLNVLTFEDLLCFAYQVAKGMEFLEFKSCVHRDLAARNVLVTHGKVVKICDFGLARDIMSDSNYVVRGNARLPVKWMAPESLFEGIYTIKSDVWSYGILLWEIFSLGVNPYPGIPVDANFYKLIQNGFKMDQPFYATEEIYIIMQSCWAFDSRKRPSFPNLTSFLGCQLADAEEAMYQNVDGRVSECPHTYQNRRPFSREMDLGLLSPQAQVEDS
# Description: as §1, §2, §3, §4, §5, §6, §7
# [3] = test system: Ba/F3 parental generation cells; test: Cytotoxicity assay (CellTiter-Glo), Ba/F3 parental; details: Mus musculus, BaF3, Table 2, 72 hrs
# Description: as §1, §2, §3, §4, §5, §6, §7
# T1 sequence (P07949 whole entry V804L, the tested form may be a part): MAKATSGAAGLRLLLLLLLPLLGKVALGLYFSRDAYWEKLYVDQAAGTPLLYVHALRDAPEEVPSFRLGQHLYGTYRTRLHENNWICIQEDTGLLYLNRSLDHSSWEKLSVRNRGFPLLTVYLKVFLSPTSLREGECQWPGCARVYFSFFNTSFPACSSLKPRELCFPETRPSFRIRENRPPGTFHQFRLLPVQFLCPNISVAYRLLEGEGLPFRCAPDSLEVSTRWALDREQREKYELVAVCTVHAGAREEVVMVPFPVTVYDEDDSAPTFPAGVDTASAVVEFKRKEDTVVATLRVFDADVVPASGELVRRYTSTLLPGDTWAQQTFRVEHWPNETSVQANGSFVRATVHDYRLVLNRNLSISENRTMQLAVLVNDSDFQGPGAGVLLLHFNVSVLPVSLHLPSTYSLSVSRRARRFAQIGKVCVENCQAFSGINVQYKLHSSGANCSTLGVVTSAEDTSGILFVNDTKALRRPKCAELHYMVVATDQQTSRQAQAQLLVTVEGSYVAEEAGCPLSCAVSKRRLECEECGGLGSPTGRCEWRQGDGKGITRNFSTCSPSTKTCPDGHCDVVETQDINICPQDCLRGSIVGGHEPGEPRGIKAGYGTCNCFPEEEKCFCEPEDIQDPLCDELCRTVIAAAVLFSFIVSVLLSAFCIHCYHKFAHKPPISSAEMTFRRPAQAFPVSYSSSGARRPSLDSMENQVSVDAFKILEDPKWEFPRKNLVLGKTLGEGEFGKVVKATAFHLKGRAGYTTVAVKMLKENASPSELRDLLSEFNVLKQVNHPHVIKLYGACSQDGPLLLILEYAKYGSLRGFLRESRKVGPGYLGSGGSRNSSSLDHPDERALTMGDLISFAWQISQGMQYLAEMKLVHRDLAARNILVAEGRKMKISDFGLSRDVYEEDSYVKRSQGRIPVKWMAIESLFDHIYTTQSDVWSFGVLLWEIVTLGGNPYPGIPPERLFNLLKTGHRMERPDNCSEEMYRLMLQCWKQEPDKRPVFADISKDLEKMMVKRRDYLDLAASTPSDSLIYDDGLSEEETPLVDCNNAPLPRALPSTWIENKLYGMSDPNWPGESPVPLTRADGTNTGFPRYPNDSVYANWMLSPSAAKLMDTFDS
Structure (SMILES),GI50 [1] [nM],Ba/F3 KIF5B-RET^V804L Selectivity on parental generation [2],GI50 (Ba/F3 FLT3-ITD cells) [nM],IC50 [3] [nM]
"CC(C)n1nc(-c2ccc(NC(=O)Nc3cc(C(F)(F)F)ccc3F)cc2)c2c(N)ncnc21 [AD80, reference compound]",9.05,89.7,0.67,812
"CC(C)n1nc(-c2ccc(CC(=O)Nc3cc(C(C)(C)C(F)(F)F)on3)cc2)c2c(N)ncnc21 [Compound T-1, 2-(4-(4-amino-1-isopropyl-1H-pyrazolo[3,4-d]pyrimidin-3-yl)phenyl)-N-(5-(1,1,1-trifluoro-2-methylprop-2-yl)isoxazol-3-yl)acetamide]",3.71,436.8,0.31,1620
"CC(C)n1nc(-c2ccc(NC(=O)Nc3cc(C(C)(C)C(F)(F)F)on3)cc2)c2c(N)ncnc21 [Compound T-2, 1-(4-(4-amino-1-isopropyl-1H-pyrazolo[3,4-d]pyrimidin-3-yl)phenyl)-3-(5-(1,1,1-trifluoro-2-methylprop-2-yl)isoxazol-3-yl)urea]",5.39,62.68,0.41,338
"CC(C)n1cc(-c2ccc(CC(=O)Nc3cc(C(C)(C)C(F)(F)F)on3)cc2)c2c(N)ncnc21 [Compound T-3, 2-(4-(4-amino-7-isopropyl-7H-pyrrolo[2,3-d]pyrimidin-5-yl)phenyl)-N-(5-(1,1,1-trifluoro-2-methylprop-2-yl)isoxazol-3-yl)acetamide]",3.63,199.6,0.1,724
"CC(C)c1nc(-c2ccc(CC(=O)Nc3cc(C(C)(C)C(F)(F)F)on3)cc2)c2c(N)nccn12 [Compound T-4, 2-(4-(8-amino-3-isopropylimidazo[1,5-a]pyrazin-1-yl)phenyl)-N-(5-(1,1,1-trifluoro-2-methylprop-2-yl)isoxazol-3-yl)acetamide]",31.6,22.2,0.1,701
"CC(C)c1cc(-c2ccc(CC(=O)Nc3cc(C(C)(C)C(F)(F)F)on3)cc2)c2c(N)ncnn12 [Compound T-5, 2-(4-(4-amino-7-isopropylpyrrolo[2,1-f][1,2,4]triazin-5-yl)phenyl)-N-(5-(1,1,1-trifluoro-2-methylprop-2-yl)isoxazol-3-yl)acetamide]",19.7,242.8,1.89,4780
"CC(C)n1nc(-c2ccc(CC(=O)Nc3cc(C(C)(C)C(F)(F)F)on3)c(F)c2)c2c(N)ncnc21 [Compound T-6, 2-(4-(4-amino-1-isopropyl-1H-pyrazolo[3,4-d]pyrimidin-3-yl)-2-fluorophenyl)-N-(5-(1,1,1-trifluoro-2-methylprop-2-yl)isoxazol-3-yl)acetamide]",5.8,361.3,0.4,2100
"CC(C)n1nc(-c2ccc(CC(=O)Nc3cc(C(C)(C)C(F)(F)F)on3)cn2)c2c(N)ncnc21 [Compound T-7, 2-(6-(4-amino-1-isopropyl-1H-pyrazolo[3,4-d]pyrimidin-3-yl)pyridin-3-yl)-N-(5-(1,1,1-trifluoro-2-methylprop-2-yl)isoxazol-3-yl)acetamide]",55.7,5.9,0.1,328
"CC(C)n1nc(-c2ccc(CC(=O)Nc3cc(C(C)(C)C(F)(F)F)no3)cc2)c2c(N)ncnc21 [Compound T-8, 2-(4-(4-amino-1-isopropyl-1H-pyrazolo[3,4-d]pyrimidin-3-yl)phenyl)-N-(3-(1,1,1-trifluoro-2-methylprop-2-yl)isoxazol-5-yl)acetamide]",1.53,2403.3,0.25,3680
"CC(C)n1nc(-c2ccc(CC(=O)Nc3cc(C(C)(C)C(F)(F)F)no3)cn2)c2c(N)ncnc21 [Compound T-9, 2-(6-(4-amino-1-isopropyl-1H-pyrazolo[3,4-d]pyrimidin-3-yl)pyridin-3-yl)-N-(3-(1,1,1-trifluoro-2-methylprop-2-yl)isoxazol-5-yl)acetamide]",49.3,83.5,5.49,4120
"CC(C)c1nc(-c2ccc(CC(=O)Nc3cc(C(C)(C)C(F)(F)F)on3)cc2)c2c(N)ncnn12 [Compound T-10, 2-(4-(4-amino-7-isopropylimidazo[5,1-f][1,2,4]triazin-5-yl)phenyl)-N-(5-(1,1,1-trifluoro-2-methylprop-2-yl)isoxazol-3-yl)acetamide]",18.4,121.8,0.32,2240
"[2H]C([2H])([2H])C(n1nc(-c2ccc(CC(=O)Nc3cc(C(C)(C)C(F)(F)F)no3)cc2)c2c(N)ncnc21)C([2H])([2H])[2H] [Compound T-11, 2-(4-(4-amino-1-(propan-2-yl-1,1,1,3,3,3-d6)-1H-pyrazolo[3,4-d]pyrimidin-3-yl)phenyl)-N-(3-(1,1,1-trifluoro-2-methylpropan-2-yl)isoxazol-5-yl)acetamide]",6.1,902.8,0.73,5510
"[2H]C([2H])([2H])C(n1cc(-c2ccc(CC(=O)Nc3cc(C(C)(C)C(F)(F)F)on3)cc2)c2c(N)ncnc21)C([2H])([2H])[2H] [Compound T-12, 2-(4-(4-amino-7-(propen-2-yl-1,1,1,3,3,d6)-7H-pyrrolo[2,3-d]pyrimidin-5-yl)phenyl)-N-(5-(1,1,1-trifluo-2-methylpropan-2-yl)isoxazol-3-yl)acetamide]",8.11,132.2,0.7,1070
